Measured values taken from PMC8244912, “An oxytocin/vasopressin-related neuropeptide modulates social foraging behavior in the clonal raider ant” (PLoS Biology, 2021).
Entries after “also recorded” stand apart in the source; their conditions may differ. Where a SMILES comes first, the peptide text is derived from it. Bridges are numbered along the chain shown (N, C = ends).

What was measured:
[1] = test system: HEK293T cells transfected with an empty vector; experiment: Calcium flux, HEK293T cells transfected with empty vector; assay type: cell-based, human; details: inotocin 100 nM
Experimental: Human embryonic kidney 293T (HEK293T) cells were cultured in DMEM supplemented with 10% FBS at 37°C in a tissue culture incubator with a humidified atmosphere containing 5% CO2. Cells were plated in 10-cm dishes, and, when they reached 60% to 70% confluency, they were transfected with a pcDNA3.3 vector containing approximately 1 ng of inotocin receptor cDNA or an empty vector as a control using Lipofectamine 2000. Cells were transfected directly into poly-D-lysine–coated 384-well plates and incubated for 48 hours at 37°C. Subsequently, cells were incubated with FLIPR Calcium 4 Assay kit dye for 1 hour in the incubator. The fluorescence (excitation, 488 nm; emission, 530 nm) of the wells was recorded using a Flex Station II 384 (Molecular Devices, San Jose, California, USA), and a dose curve of inotocin (0 to 3 μM) was applied to the wells, in sextuplicate (see below for inotocin peptide synthesis). We calculated the EC50 values using Prism (GraphPad Software version 8) nonlinear regression, 4-parameter logistic curve fit. Dose curves were repeated at least 3 times on independently prepared samples and different days. Results were consistent across replicates, and example dose curves are shown in Fig 1C and S4A Fig. Control experiments are shown in S2–S5 Figs.

[2] = test system: O. biroi inotocin receptor splice variant ObiroiItr_H (lacks TM4-7); experiment: Calcium imaging (fura-2), truncated receptor isoform H; assay type: cell-based, Ooceraea biroi
Experimental: The full-length inotocin receptor cDNA sequence that was cloned and used for calcium assays is ObiroiItr_A (GenBank MW660838; for protein sequence, see S1 Fig). We also tested splice variant ObiroiItr_H (GenBank MW660845; for protein sequence, see S1 Fig), which lacks TM4-7, for calcium activity.
(§1) Experiments were conducted following Garrison J.L., et al 2012 [8] with modifications. Human embryonic kidney 293T cells (HEK293T) were cultured in DMEM and supplemented with 10% FBS at 37 °C in a cell incubator containing 5% CO^2. Cells were grown in 35 mm MatTek glass bottom dishes to a level of 60 – 70% confluency. Cells were transfected with a 1:1 ratio of PCDNA3.3 containing ~ 1μg of itcR cDNA (full-length isoform A or truncated isoform H) (See S1 Fig for isoforms) and pcDNA3-alpha 16 (encoding promiscuous G protein 16) using Lipofectamine 2000. Cells were incubated for 24 h at 37 °C and then transferred to 28 °C for another 16-24 h. For control experiments, empty vector was also transfected. On the day of the experiment, the cells were loaded with […] fura-2/AM (Invitrogen) for 25 min at 37 °C. Inotocin peptide diluted in Ringer’s solution was applied to the cells for 15 s with a peristaltic pump, and fluorescence at 510 nm was monitored (excitation at 340/380 nm) using a MetaFluor calcium imaging system with a Nikon Eclipse TE2000U microscope.

[3] = test system: O. biroi inotocin receptor ObiroiItr_A; experiment: Calcium imaging (fura-2), full-length receptor isoform A with G protein 16; assay type: cell-based, Ooceraea biroi; details: ObiroiItr_A and G protein 16; fura-2, 510 nm, ex 340/380 nm; peptide for 15 s
Experimental: as §1

Ooceraea biroi ants = experiment: Pharmacological immersion, mixed-age colonies: ants outside the nest (S9 Fig); assay type: in vivo; details: immersion in 1 mM; mixed-age colonies with larvae; 5 hours; n = 6; p = 0.0002, extra sum-of-squares F-test
Text: Mature O. biroi inotocin peptide (CLITNCPRG) was synthesized and cyclized at The Rockefeller University Proteomics Resource Center, along with a scrambled version of the peptide (NRPCGLTCI) as a negative control with identical amino acid composition.
For the initial experiment (S9 Fig), we set up 6 experimental colonies of line B ants that were color tagged as previously described. Each colony consisted of 16 ants in an airtight Petri dish with a 5-cm diameter; 8 age-matched 4-week-old and 8 age-matched approximately 20-week-old ants. We added ten 3- to 4-day-old larvae to the colonies. We used Logitech (Lausanne, Switzerland) C910 USB cameras to record 5 hours after the treatments, and we used ImageJ to split the videos in batches of 5,000 frames (corresponding to 18.75-minute intervals). We sampled every 10th frame from the 5,000 frames and overlaid the resulting 500 frames into a single image using ImageJ. In each image, we manually counted the number of instances of ants that were outside the nest as a proxy for foraging behavior. Color tagging was used to differentiate inotocin treated from mock treated and untreated ants. The nest was defined as a region of high density of ants in the 500 image projections.
On the day of the experiment, colonies were not fed. To avoid disturbance to the colony as much as possible, half the colony was left untreated, and half was treated. […]

[4] = test system: HEK293T cells transfected with an empty vector; experiment: Calcium imaging (fura-2), empty vector; assay type: cell-based, human
Experimental: as §1

SMILES: CC[C@H](C)[C@@H]1NC(=O)[C@H](CC(C)C)NC(=O)[C@@H](N)CSSC[C@@H](C(=O)N2CCC[C@H]2C(=O)N[C@@H](CCCNC(=N)N)C(=O)NCC(N)=O)NC(=O)[C@H](CC(N)=O)NC(=O)[C@H]([C@@H](C)O)NC1=O [Inotocin] (H-CLITNCPRG-NH2; disulfide 1-6; N-terminus and C-terminus assumed)
- calcium response [1]: No Ca^2+ influx is detected
- calcium signal [2]: no response to inotocin; also recorded: No calcium signal is detected; also recorded: does not respond to inotocin
- calcium signal [3]: Calcium signal is detected
- time/instances outside the nest vs scrambled control peptide (Ooceraea biroi ants): spent more time outside the nest than controls; also recorded: foraged more when treated with inotocin than when treated with the control peptide
- calcium signal [4]: No calcium signal is detected
